In the first assay the target is T1, Estrogen-related receptor gamma (Homo sapiens, UniProt P62508).
T1 sequence (P62508 whole entry): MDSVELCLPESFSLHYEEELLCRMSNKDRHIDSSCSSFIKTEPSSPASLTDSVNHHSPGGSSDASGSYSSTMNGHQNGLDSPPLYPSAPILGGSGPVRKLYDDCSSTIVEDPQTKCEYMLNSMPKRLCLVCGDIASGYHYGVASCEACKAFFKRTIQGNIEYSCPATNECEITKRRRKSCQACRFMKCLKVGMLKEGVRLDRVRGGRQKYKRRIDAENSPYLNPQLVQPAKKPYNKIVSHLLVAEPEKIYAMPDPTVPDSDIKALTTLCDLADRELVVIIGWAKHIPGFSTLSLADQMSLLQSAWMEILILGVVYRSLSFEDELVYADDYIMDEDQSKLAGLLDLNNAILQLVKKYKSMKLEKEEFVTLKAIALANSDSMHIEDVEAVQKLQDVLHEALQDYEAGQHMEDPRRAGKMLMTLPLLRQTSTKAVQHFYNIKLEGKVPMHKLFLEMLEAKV
In words: Displacement of [3H]4-OHT from ERRgamma at 3 uM. On the technique in general: Displacement assays read how much labelled ligand stays bound in the presence of the test substance.
As usually defined, the IC50 is the concentration that gives 50% inhibition. A high value points to a need for much substance. For the molecule `CN(C)CCOc1ccc(/C(=C(/CCCC(=O)O)c2ccccc2)c2ccc(O)cc2)cc1`, the IC50 entry is “Not Active”.
On the same count and under the same terms, as for `CN(C)CCC/C(=C(\c1ccc(O)cc1)c1ccc(OCCN(C)C)cc1)c1ccccc1`, the entry is “Not Active”.
Turning to `CC(=O)NCCC/C(=C(\c1ccc(O)cc1)c1ccc(OCCN(C)C)cc1)c1ccccc1`, the IC50 entry is given as “Not Active”.
Regarding `CNCCC/C(=C(\c1ccc(O)cc1)c1ccc(OCCN(C)C)cc1)c1ccccc1`, the IC50 result is recorded as “Not Active”.

The species entered for another assay is Homo sapiens. The assay is described as follows: Selectivity for ERRgamma over ERalpha relative to 4-hydroxytamoxifen.
`CN(C)CCOc1ccc(/C(=C(/CCN=[N+]=[N-])c2ccccc2)c2ccc(O)cc2)cc1`: the Ratio IC50 was 1.6.

Another assay deals with T1, Estrogen-related receptor gamma.
Turning to `CN(C)CCOc1ccc(/C(=C(/CCCCl)c2ccccc2)c2ccc(O)cc2)cc1`, the IC50 worked out at 130 nM.
As for `CN(C)CCOc1ccc(/C(=C(/CCC#N)c2ccccc2)c2ccc(O)cc2)cc1`, half-maximal inhibition (IC50) was put at 1300 nM.
As for `CN(C)CCOc1ccc(/C(=C(/CCCCO)c2ccccc2)c2ccc(O)cc2)cc1`, the midpoint of inhibition, the IC50, lay at 790 nM.
The same measure, in the same setting: as for `CN(C)CCOc1ccc(/C(=C(/CCN=[N+]=[N-])c2ccccc2)c2ccc(O)cc2)cc1`, the figure is 5 nM; as for `CN(C)CCOc1ccc(/C(=C(/CCCN=[N+]=[N-])c2ccccc2)c2ccc(O)cc2)cc1`, 160 nM.
Same read-out and setting: to `CN(C)CCOc1ccc(/C(=C(/CCCC#N)c2ccccc2)c2ccc(O)cc2)cc1` belongs 200 nM; to `CN(C)CCOc1ccc(/C(=C(/CCCl)c2ccccc2)c2ccc(O)cc2)cc1` [4-HYDROXYTORMIFENE], 13 nM; to `CSCCC/C(=C(\c1ccc(O)cc1)c1ccc(OCCN(C)C)cc1)c1ccccc1`, 1000 nM.

The next assay concerns the target T2, Estrogen receptor (Homo sapiens, UniProt P03372).
T2 sequence (P03372 whole entry): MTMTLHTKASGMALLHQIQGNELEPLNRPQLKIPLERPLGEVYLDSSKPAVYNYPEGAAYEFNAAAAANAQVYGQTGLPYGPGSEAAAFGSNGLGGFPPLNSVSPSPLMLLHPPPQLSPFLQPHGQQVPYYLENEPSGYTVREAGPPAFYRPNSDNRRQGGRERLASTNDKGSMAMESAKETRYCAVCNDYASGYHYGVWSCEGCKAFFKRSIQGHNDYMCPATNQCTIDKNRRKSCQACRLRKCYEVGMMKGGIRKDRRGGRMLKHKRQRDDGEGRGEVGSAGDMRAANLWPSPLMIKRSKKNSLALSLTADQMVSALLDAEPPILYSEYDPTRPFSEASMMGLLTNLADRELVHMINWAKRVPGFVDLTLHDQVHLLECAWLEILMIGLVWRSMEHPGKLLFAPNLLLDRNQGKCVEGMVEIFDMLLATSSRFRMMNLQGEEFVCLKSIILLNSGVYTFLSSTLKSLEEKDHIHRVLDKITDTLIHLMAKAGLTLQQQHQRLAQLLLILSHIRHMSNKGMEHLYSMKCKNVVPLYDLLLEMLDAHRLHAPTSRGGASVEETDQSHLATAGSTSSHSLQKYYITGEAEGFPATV
Molecule `CN(C)CCOc1ccc(/C(=C(/CCN=[N+]=[N-])c2ccccc2)c2ccc(O)cc2)cc1` gave a concentration for half-maximal inhibition (IC50) of 1 nM.

The values above are taken from ChEMBL document CHEMBL1149464, “Structure-guided synthesis of tamoxifen analogs with improved selectivity for the orphan ERRgamma” (Bioorg Med Chem Lett, 2006).
